Experimental data reported in paper PMC12152147, “DDB1 engagement defines the selectivity of S656 analogs for cyclin K degradation over CDK inhibition” (EMBO Reports, 2025).
Where two headings read alike, the source gives them in different places.

What was measured:
[1] = test system: cyclin KeGFP; assay: Cyclin KeGFP reporter system (eGFP/mCherry MFI by flow cytometry);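 further: 10 μM compound for 3 h relative to DMSO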; assay type: cell-based, H. sapiens; settings: cyclin K-eGFP reporter
Experimental: We used the cyclin KeGFP reporter system previously described (Słabicki et al, [2020]). Lentiviral vector (Addgene plasmid #169930) was used to infect OCI-AML5 at a MOI of 5 and were selected with puromycin. Cells were seeded in methylcellulose and let grown as colonies for 10 days. Colonies were isolated, expanded and selected based on cyclin KeGFP fluorescence in presence and absence of cyclin K degrader molecules. Selected G7 clone was used for all reported experiments. Fluorescent signal of cyclin KeGFP and mCherry were quantified by flow cytometry (BD LSRII) in each condition and the geometric mean fluorescence intensity (MFI) were calculated using FlowJo (BD Biosciences). The ratio of eGFP to mCherry was normalized to DMSO-treated cells.

[2] = target: T1, CDK9/CyclinT (Homo sapiens, UniProt P50750); assay: CDK9/CyclinT in vitro kinase activity, single concentration 1 μM; assay type: biochemical; settings: single concentration 1 μM
T1 construct: purchased BPS Bioscience 79628
Experimental: Kinase activity was assessed using the kinase assay kits from BPS Bioscience for CDK1, CDK9 and CDK12 with Kinase Glo MAX in duplicates. Compounds were tested at a single concentration of 1 μM for CDK1 and CDK9 activity, and in a dilution ranging from 0.64 nM to 50 μM for CDK12 activity. Chemiluminescence was read using the Neo Synergy BioTek plate reader.

[3] = test system: OCI-AML5 cells expressing shRNAs targeting CDK1, 2, 4, 7, 9, cyclin K; assay: Dose response in OCI-AML5 expressing shRNAs targeting CDK1, 2, 4, 7, 9, cyclin K or control; assay type: cell-based, H. sapiens; settings: for Class: class from shRNA IC50 profile and cyclin K-eGFP degradation
[4] = test system: OCI-AML5 cells; assay: Dose-response proliferative assay in OCI-AML5 (4 days, CellTiterGlo); assay type: cell-based, H. sapiens; settings: read-out: IC50 in AML5
Experimental: Cell lines were purchased from the ATCC or donated from collaborators. OCI-AML5 cell line was cultured in αMEM, 10% heat-inactivated FBS supplemented with 10 ng/mL GM-CSF, OCI-AML1, U2OS and HEK293T cell lines in DMEM, 10% heat-inactivated FBS. Cells were maintained at 37 °C in 5% CO2 atmosphere.
Dose-response assays in primary AML specimens were performed as in chemical screen (see above) with the exception that compounds were tested in serial dilution (8 dilutions, 1:4, 10 μM down to 0.5 nM). Dose-response assays in OCI-AML5 cell line were conducted similarly with the following modifications: 300 cells per well were seeded in 50 μL of cell line media and cell viability was evaluated after 4 days in culture.

[5] = test system: OCI-AML5 cells expressing shRNA targeting CUL4A or CUL4B; assay: Dose response in OCI-AML5 expressing shRNAs targeting CUL4A, CUL4B or control; assay type: cell-based, H. sapiens; settings: ratio of IC50 in shCUL4A vs shCTRL OCI-AML5 cells
[6] = OCI-AML5 expressing shRNA CCNK (cyclin K), read-out: IC50 shRNA CCNK
[7] = OCI-AML5 expressing shRNA CDK1, read-out: IC50 shRNA CDK1
[8] = OCI-AML5 expressing shRNA CDK2, read-out: IC50 shRNA CDK2
[9] = OCI-AML5 expressing shRNA CDK4, read-out: IC50 shRNA CDK4
[10] = OCI-AML5 expressing shRNA CDK7, read-out: IC50 shRNA CDK7
[11] = OCI-AML5 expressing shRNA CDK9, read-out: IC50 shRNA CDK9
[12] = Homo sapiens, OCI-AML-5, OCI-AML5 cells
[13] = Homo sapiens, OCI-AML-5, OCI-AML5 expressing shRNA CCNK (cyclin K), read-out: IC50 shRNA CCNK
[14] = Homo sapiens, OCI-AML-5, OCI-AML5 expressing shRNA CDK1, read-out: IC50 shRNA CDK1
[15] = Homo sapiens, OCI-AML-5, OCI-AML5 expressing shRNA CDK2, read-out: IC50 shRNA CDK2
[16] = Homo sapiens, OCI-AML-5, OCI-AML5 expressing shRNA CDK4, read-out: IC50 shRNA CDK4
[17] = Homo sapiens, OCI-AML-5, OCI-AML5 expressing shRNA CDK7, read-out: IC50 shRNA CDK7
[18] = Homo sapiens, OCI-AML-5, OCI-AML5 expressing shRNA CDK9, read-out: IC50 shRNA CDK9

T1 sequence (P50750 whole entry): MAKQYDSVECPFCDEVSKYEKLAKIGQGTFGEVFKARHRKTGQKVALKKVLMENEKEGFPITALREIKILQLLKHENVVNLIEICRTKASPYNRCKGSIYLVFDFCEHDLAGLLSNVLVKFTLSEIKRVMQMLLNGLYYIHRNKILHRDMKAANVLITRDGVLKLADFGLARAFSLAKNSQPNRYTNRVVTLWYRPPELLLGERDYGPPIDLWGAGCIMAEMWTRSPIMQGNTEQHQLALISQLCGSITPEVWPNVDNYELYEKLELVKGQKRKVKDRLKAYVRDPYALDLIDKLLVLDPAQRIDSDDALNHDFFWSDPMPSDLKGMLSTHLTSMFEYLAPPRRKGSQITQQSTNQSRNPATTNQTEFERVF
T1 sequence (O60563 whole entry partner): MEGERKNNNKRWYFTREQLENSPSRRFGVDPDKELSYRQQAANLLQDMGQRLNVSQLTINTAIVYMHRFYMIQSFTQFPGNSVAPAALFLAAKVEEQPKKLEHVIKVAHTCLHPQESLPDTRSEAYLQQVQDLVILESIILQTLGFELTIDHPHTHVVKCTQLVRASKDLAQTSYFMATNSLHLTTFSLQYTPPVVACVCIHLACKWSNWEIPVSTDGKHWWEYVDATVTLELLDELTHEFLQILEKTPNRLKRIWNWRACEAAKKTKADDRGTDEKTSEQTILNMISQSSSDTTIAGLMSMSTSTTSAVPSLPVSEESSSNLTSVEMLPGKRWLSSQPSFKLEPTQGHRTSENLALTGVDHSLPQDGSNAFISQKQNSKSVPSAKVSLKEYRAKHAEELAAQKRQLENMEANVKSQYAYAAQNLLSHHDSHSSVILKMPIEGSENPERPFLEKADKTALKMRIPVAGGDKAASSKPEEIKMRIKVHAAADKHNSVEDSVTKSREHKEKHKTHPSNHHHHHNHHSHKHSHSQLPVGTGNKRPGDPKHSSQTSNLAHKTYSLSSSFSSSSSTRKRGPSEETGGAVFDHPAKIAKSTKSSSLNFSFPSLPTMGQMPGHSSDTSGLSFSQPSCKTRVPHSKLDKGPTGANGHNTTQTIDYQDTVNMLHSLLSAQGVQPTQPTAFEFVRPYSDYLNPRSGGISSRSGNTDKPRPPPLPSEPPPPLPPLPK

`CC(=O)Nc1ncc(SCc2cccnc2)s1` [UOM-005188] was tested, and the “% degradation cyclin K-eGFP” value [1] was 6%, the “% CDK9 inhibition” value [2] was 1% and the IC50 [3, 6] was greater than 10 µM. It also gave an IC50 [3, 7] of 2.97 µM, an IC50 [3, 8] greater than 10 µM and an IC50 [3, 9] greater than 10 µM. The IC50 [3, 10] was greater than 10 µM, the IC50 [3, 11] was greater than 10 µM and the Class [3] was 2.

For `O=C(Cc1ccc(C(F)(F)F)cc1)Nc1ncc(SCc2cccnc2)s1` [UOM-005203], the IC50 [4, 12] was 4.29 µM, the “% degradation cyclin K-eGFP” value [1] was 51% and the inhibition at 1 µM [2] was 72%. For the same compound, the IC50 [3, 13] was 3.02 µM, the IC50 [3, 14] was 2.68 µM and the IC50 [3, 15] was 4.39 µM. It also gave an IC50 [3, 16] of 3.59 µM, an IC50 [3, 17] of 3.83 µM and an IC50 [3, 18] of 3.64 µM. The Class [3] was “mixed 1-2” and the “Ratio shCUL4A/shCTRL” value [5] was 1.13.

In the case of `O=C(Cc1cc(F)ccc1Br)Nc1ncc(SCc2cccnc2)s1` [UOM-005204], the IC50 [4, 12] is reported as 4.48 µM, the “% degradation cyclin K-eGFP” value [1] is reported as 12% and the inhibition at 1 µM [2] is reported as 15%. For the same compound, the IC50 [3, 13] was 6.94 µM, the IC50 [3, 14] was 3.57 µM and the IC50 [3, 15] was 8.34 µM. The IC50 [3, 16] was 5.28 µM, the IC50 [3, 17] was 8.07 µM and the IC50 [3, 18] was 4.1 µM. The Class [3] was 2 and the “Ratio shCUL4A/shCTRL” value [5] was 1.11.

`CC(C)(C)OC(=O)N1CCC(C(=O)Nc2ncc(SCc3cccnc3)s2)CC1` [UOM-005205] was tested, and the IC50 ([4]; OCI-AML5 cells) was 2.92 µM, the “% degradation cyclin K-eGFP” value [1] was 32% and the “% CDK9 inhibition” value [2] was 40%. The IC50 [3, 6] was 5.11 µM, the IC50 [3, 7] was 2.99 µM and the IC50 [3, 8] was 2.94 µM. It also gave an IC50 [3, 9] of 5.08 µM, an IC50 [3, 10] of 3.3 µM and an IC50 [3, 11] of 4.3 µM. The “Ratio shCUL4A/shCTRL” value [5] was 0.65.

`CSc1ccc(CC(=O)Nc2ncc(SCc3cccnc3)s2)cc1` [UOM-005206] was tested, and the IC50 [4, 12] was 1.18 µM, the “% degradation cyclin K-eGFP” value [1] was 76% and the inhibition at 1 µM [2] was 67%. For the same compound, the IC50 [3, 13] was 0.458 µM, the IC50 [3, 14] was 0.867 µM and the IC50 [3, 15] was 1.28 µM. The IC50 [3, 16] was 1.3 µM, the IC50 [3, 17] was 1.33 µM and the IC50 [3, 18] was 0.848 µM. The Class [3] was “mixed 1-2” and the “Ratio shCUL4A/shCTRL” value [5] was 1.77.

For `O=C(CC1CCCC1)Nc1ncc(SCc2cccnc2)s1` [UOM-005225], the IC50 [4, 12] was 3.79 µM, the “% degradation cyclin K-eGFP” value [1] was 2% and the inhibition at 1 µM [2] was 73%. The IC50 [3, 13] was 4.56 µM, the IC50 [3, 14] was 2.36 µM and the IC50 [3, 15] was 2.92 µM. It also gave an IC50 [3, 16] of 4.09 µM, an IC50 [3, 17] of 4.06 µM and an IC50 [3, 18] of 3 µM. The Class [3] was 2 and the “Ratio shCUL4A/shCTRL” value [5] was 1.07.

In the case of `Cc1nc(CC(=O)Nc2ncc(SCc3cccnc3)s2)c(C)s1` [UOM-005227], the IC50 [4, 12] is reported as 5.63 µM, the “% degradation cyclin K-eGFP” value [1] is reported as 0% and the inhibition at 1 µM [2] is reported as 53%. For the same compound, the IC50 [3, 13] was 6.24 µM, the IC50 [3, 14] was 7.68 µM and the IC50 [3, 15] was 6.5 µM. The IC50 [3, 16] was 4.79 µM, the IC50 [3, 17] was 4.79 µM and the IC50 [3, 18] was 5.39 µM. For the same compound, the “Ratio shCUL4A/shCTRL” value [5] was 1.12.

`Cn1cc(CC(=O)Nc2ncc(SCc3cccnc3)s2)c2ccccc21` [UOM-005228] was tested, and the IC50 [4, 12] was 4.04 µM, the “% degradation cyclin K-eGFP” value [1] was 23% and the inhibition at 1 µM [2] was 51%. It also gave an IC50 [3, 13] of 5.43 µM, an IC50 [3, 14] of 2.27 µM and an IC50 [3, 15] of 4.58 µM. The IC50 [3, 16] was 4.4 µM, the IC50 [3, 17] was 4.12 µM and the IC50 [3, 18] was 3.26 µM. The Class [3] was 2 and the “Ratio shCUL4A/shCTRL” value [5] was 0.81.

With `Cc1nnc(NC(=O)Cc2ccc(N(C)C)cc2)s1` [UOM-005596] the “% degradation cyclin K-eGFP” value [1] was 0%, the “% CDK9 inhibition” value [2] was 0% and the “activity after alteration of the aminothiazole core / bulky replacement” value [3] was “loss of binding of the compounds to CDK”. For the same compound, the IC50 [3, 6] was greater than 10 µM, the IC50 [3, 7] was greater than 10 µM and the IC50 [3, 8] was greater than 10 µM. It also gave an IC50 [3, 9] greater than 10 µM, an IC50 [3, 10] greater than 10 µM and an IC50 [3, 11] greater than 10 µM. The Class [3] was “inactive”.
